Reference: PubChem BioAssay AID330 (DTP/NCI, 2004)
“And” between values parts separate entries of the source, which are not always exact repeats. Identical values can stand only once. Inconclusive results and toxic doses are left out.

Test system: P388 leukemia ip, CD2F1 mice, survival T/C
Assay: NCI In Vivo Anticancer Drug Screen. Data for tumor model P388 Leukemia (intraperitoneal) in CD2F1 (CDF1) mice
Details: endpoint: median survival time, higher = longer survival
Procedure, shortened: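 Mice carrying the transplanted tumor received test compound or vehicle. Survival was recorded in each group, and the value is the treated-group measurement divided by that of the vehicle-treated control group.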

[1] = dose: 50.0 mg/kg/injection, schedule: Q01DX009 (ip), vehicle: saline with Tween-80
[2] = dose: 100.0 mg/kg/injection, schedule: Q01DX009 (ip), vehicle: saline with Tween-80
[3] = dose: 200.0 mg/kg/injection, schedule: Q01DX009 (ip), vehicle: saline with Tween-80
[4] = dose: 50.0 mg/kg/injection, schedule: Q01DX009 (ip), vehicle: saline
[5] = dose: 100.0 mg/kg/injection, schedule: Q01DX009 (ip), vehicle: saline
[6] = dose: 200.0 mg/kg/injection, schedule: Q01DX009 (ip), vehicle: saline
[7] = dose: 100.0 mg/kg/injection, schedule: Q04DX003 (ip), vehicle: Klucel (hydroxypropylcellulose) (HPC)
[8] = dose: 200.0 mg/kg/injection, schedule: Q04DX003 (ip), vehicle: Klucel (hydroxypropylcellulose) (HPC)
[9] = dose: 400.0 mg/kg/injection, schedule: Q04DX003 (ip), vehicle: Klucel (hydroxypropylcellulose) (HPC)
[10] = dose: 50.0 mg/kg/injection, schedule: Q01DX005 (ip), vehicle: saline with Tween-80
[11] = dose: 100.0 mg/kg/injection, schedule: Q01DX005 (ip), vehicle: saline with Tween-80
[12] = dose: 200.0 mg/kg/injection, schedule: Q01DX005 (ip), vehicle: saline with Tween-80
[13] = dose: 60.0 mg/kg/injection, schedule: Q01DX005 (ip), vehicle: saline with Tween-80
[14] = dose: 120.0 mg/kg/injection, schedule: Q01DX005 (ip), vehicle: saline with Tween-80
[15] = dose: 100.0 mg/kg/injection, schedule: Q04DX003 (ip), vehicle: saline with Tween-80
[16] = dose: 200.0 mg/kg/injection, schedule: Q04DX003 (ip), vehicle: saline with Tween-80
[17] = dose: 50.0 mg/kg/injection, schedule: Q01DX005 (ip), vehicle: saline
[18] = dose: 100.0 mg/kg/injection, schedule: Q01DX005 (ip), vehicle: saline
[19] = dose: 200.0 mg/kg/injection, schedule: Q01DX005 (ip), vehicle: saline

Cc1sc(NCc2ccccc2)c(C#N)c1C
T/C (dose: 6.25 mg/kg/injection, schedule: Q01DX009 (ip), vehicle: Klucel (hydroxypropylcellulose) (HPC)): 101 % of control
T/C (dose: 12.5 mg/kg/injection, schedule: Q01DX009 (ip), vehicle: Klucel (hydroxypropylcellulose) (HPC)): 97 % of control
T/C (dose: 25.0 mg/kg/injection, schedule: Q01DX009 (ip), vehicle: Klucel (hydroxypropylcellulose) (HPC)): 93 % of control
T/C (dose: 100.0 mg/kg/injection, schedule: Q01DX009 (ip), vehicle: Klucel (hydroxypropylcellulose) (HPC)): 86 % of control

N#CC1C(=O)NC(=O)C(C#N)C1C1C(=O)NC2CCCCC21 (stereo unspecified)
T/C [1]: 114 % of control
T/C [2]: 99 % of control
T/C [3]: 112 % of control

c1coc(CNC2=NCCCCC2)c1
T/C (dose: 12.5 mg/kg/injection, schedule: Q01DX009 (ip), vehicle: saline): 108 % of control
T/C (dose: 25.0 mg/kg/injection, schedule: Q01DX009 (ip), vehicle: saline): 108 % of control
T/C [4]: 102 % of control

CC1(C)OC1CCl (stereo unspecified)
T/C [4]: 107 % of control
T/C [5]: 102 % of control
T/C [6]: 101 % of control

CC1(C)OC2(CC1C1(C)C=CC(=O)O1)CC1(O)C(CCC34CC13C(=O)OC4c1ccoc1)O2 (stereo unspecified)
T/C [4]: 97 % of control
T/C [5]: 90 % of control
T/C [6]: 90 % of control

O=C(NNc1ccc([N+](=O)[O-])cc1[N+](=O)[O-])Nc1cccc(Cl)c1
T/C [1]: 91 % of control
T/C [2]: 99 % of control
T/C [3]: 102 % of control

O=C1C2C3C=CC(C2C(=O)N1CCl)C1C2C(=O)N(CCl)C(=O)C2C31 (stereo unspecified)
T/C (dose: 6.25 mg/kg/injection, schedule: Q01DX009 (ip), vehicle: saline with Tween-80): 105 % of control
T/C (dose: 12.5 mg/kg/injection, schedule: Q01DX009 (ip), vehicle: saline with Tween-80): 103 % of control
T/C (dose: 25.0 mg/kg/injection, schedule: Q01DX009 (ip), vehicle: saline with Tween-80): 103 % of control
T/C [1]: 107 % of control and 114 % of control
T/C [2]: 107 % of control and 116 % of control
T/C [3]: 115 % of control

COc1cc(C2c3cc4c(cc3C(OC3CCCCO3)C3COC(=O)C23)OCO4)cc(OC)c1OC (stereo unspecified)
T/C (dose: 3.12 mg/kg/injection, schedule: Q01DX005 (ip), vehicle: Klucel (hydroxypropylcellulose) (HPC)): 117 % of control

COc1cc(/C=C2\N=C(c3cccc(C)c3)OC2=O)ccc1O
T/C [1]: 91 % of control
T/C [2]: 100 % of control
T/C [3]: 99 % of control

Nc1cc(=O)n2cn[nH]c2n1
T/C (dose: 100.0 mg/kg/injection, schedule: Q04DX002 (ip), vehicle: saline with Tween-80): 100 % of control
T/C (dose: 200.0 mg/kg/injection, schedule: Q04DX002 (ip), vehicle: saline with Tween-80): 103 % of control
T/C (dose: 400.0 mg/kg/injection, schedule: Q04DX002 (ip), vehicle: saline with Tween-80): 103 % of control

CCO/C([O-])=C(\C=N\S(=O)(=O)c1ccc(C)cc1)[n+]1ccc(C)cc1
T/C [7]: 103 % of control
T/C [8]: 100 % of control
T/C [9]: 101 % of control

CC(=O)CCC(=O)[O][Bi]([c]1ccccc1)[c]1ccccc1
T/C (dose: 50.0 mg/kg/injection, schedule: Q01DX005 (ip), vehicle: Klucel (hydroxypropylcellulose) (HPC)): 110 % of control
T/C (dose: 100.0 mg/kg/injection, schedule: Q01DX005 (ip), vehicle: Klucel (hydroxypropylcellulose) (HPC)): 114 % of control
T/C (dose: 200.0 mg/kg/injection, schedule: Q01DX005 (ip), vehicle: Klucel (hydroxypropylcellulose) (HPC)): 114 % of control

CCN1CCc2nc(N)oc2CC1
T/C [4]: 107 % of control
T/C [5]: 110 % of control
T/C [6]: 115 % of control

Cc1cc(=O)[nH]c(/N=C(/N)N(C)C)n1
T/C [4]: 101 % of control
T/C [5]: 98 % of control
T/C [6]: 108 % of control

COc1ccc(S(=O)(=O)N/N=C\c2cccc([N+](=O)[O-])c2O)cc1OC
T/C [10]: 102 % of control
T/C [11]: 99 % of control
T/C [12]: 101 % of control

CC1=NN(C(=O)c2ccccn2)C(=O)C1N=Nc1ccc(S(=O)(=O)Nc2ncccn2)cc1 (stereo unspecified)
T/C [13]: 102 % of control
T/C [14]: 105 % of control
T/C (dose: 240.0 mg/kg/injection, schedule: Q01DX005 (ip), vehicle: saline with Tween-80): 94 % of control

COc1cc2c(cc1OC(C)=O)C(=O)C(Br)CCC2 (stereo unspecified)
T/C [2]: 89 % of control
T/C [3]: 86 % of control

COC(=O)C1=COC(C)C2CN3CCC4(C(=O)Nc5ccccc54)C3CC12 (stereo unspecified)
T/C [13]: 101 % of control
T/C [14]: 101 % of control

C=C(C)C1CCc2c(C)cc(OC(C)=O)c(C(=O)OC(C)=O)c2C1 (stereo unspecified)
T/C (dose: 5.0 mg/kg/injection, schedule: Q01DX005 (ip), vehicle: saline): 107 % of control
T/C (dose: 10.0 mg/kg/injection, schedule: Q01DX005 (ip), vehicle: saline): 105 % of control
T/C (dose: 20.0 mg/kg/injection, schedule: Q01DX005 (ip), vehicle: saline): 105 % of control

CC(C)(C)N1C(=O)[N+](C)(CCCCCC[N+]2(C)N=C([O-])N(C(C)(C)C)C2=O)N=C1[O-] (stereo unspecified)
T/C [15]: 95 % of control
T/C [16]: 100 % of control
T/C (dose: 400.0 mg/kg/injection, schedule: Q04DX003 (ip), vehicle: saline with Tween-80): 108 % of control

NC(N)=O.NC(N)=O.NC(N)=O.NC(N)=O.NC(N)=O.NC(N)=O.[O-][Cl+3]([O-])([O-])O.[Ti+3]
T/C [4]: 99 % of control
T/C [5]: 92 % of control
T/C [6]: 86 % of control

C=C1C(=O)OC2C=C(C)CC3C=C(CCC=C(C)CCC12)C(=O)O3 (stereo unspecified)
T/C (dose: 50.0 mg/kg/injection, schedule: Q04DX003 (ip), vehicle: saline with Tween-80): 102 % of control
T/C [15]: 104 % of control
T/C [16]: 115 % of control

CC1(C)CC(O)C2OC2C1 (stereo unspecified)
T/C [10]: 101 % of control
T/C [11]: 108 % of control
T/C [12]: 106 % of control

C=CC(=O)NC(C(=O)O)C(C)C (stereo unspecified)
T/C [17]: 97 % of control
T/C [18]: 97 % of control
T/C [19]: 100 % of control

CCCCCNC(=O)c1csc(-c2csc(CCNC(C)=O)n2)n1
T/C (dose: 12.5 mg/kg/injection, schedule: Q01DX009 (ip), vehicle: distilled water + Tween-80): 100 % of control
T/C (dose: 25.0 mg/kg/injection, schedule: Q01DX009 (ip), vehicle: distilled water + Tween-80): 103 % of control
T/C (dose: 50.0 mg/kg/injection, schedule: Q01DX009 (ip), vehicle: distilled water + Tween-80): 92 % of control
T/C (dose: 100.0 mg/kg/injection, schedule: Q01DX009 (ip), vehicle: distilled water + Tween-80): 91 % of control

C=C(C)[C@@H]1CC[C@](C)(CCC#N)/C(=N\NC(N)=O)C1
T/C [7]: 99 % of control
T/C [8]: 102 % of control
T/C [9]: 89 % of control

CNC(=O)OCc1nc(SC)n(C)c1COC(=O)NC
T/C (dose: 25.0 mg/kg/injection, schedule: Q01DX005 (ip), vehicle: saline): 160 % of control
T/C (dose: 30.0 mg/kg/injection, schedule: Q01DX005 (ip), vehicle: saline): 166 % of control and 172 % of control and 187 % of control
T/C (dose: 34.0 mg/kg/injection, schedule: Q01DX005 (ip), vehicle: saline): 158 % of control and 164 % of control and 173 % of control
T/C [17]: 184 % of control and 193 % of control
T/C (dose: 51.0 mg/kg/injection, schedule: Q01DX005 (ip), vehicle: saline): 186 % of control and 196 % of control and 200 % of control
T/C (dose: 77.0 mg/kg/injection, schedule: Q01DX005 (ip), vehicle: saline): 188 % of control
T/C [18]: 236 % of control

OCCN(CCO)N(CCO)CCO
T/C [17]: 96 % of control
T/C [18]: 97 % of control
T/C [19]: 97 % of control

CC(=O)OC1OC(COS(=O)(=O)c2ccc(C)cc2)C(OC(C)=O)C(OC(C)=O)C1OC(C)=O (stereo unspecified)
T/C (dose: 12.5 mg/kg/injection, schedule: Q01DX009 (ip), vehicle: other): 93 % of control
T/C (dose: 25.0 mg/kg/injection, schedule: Q01DX009 (ip), vehicle: other): 90 % of control
T/C (dose: 100.0 mg/kg/injection, schedule: Q01DX009 (ip), vehicle: other): 87 % of control
T/C (dose: 200.0 mg/kg/injection, schedule: Q01DX009 (ip), vehicle: other): 92 % of control

CC(O)C(NC(=O)SCc1ccccc1)C(=O)O (stereo unspecified)
T/C [10]: 101 % of control
T/C [11]: 90 % of control
T/C [12]: 92 % of control
